Entries after “also recorded” stand apart in the source; their conditions may differ. Bridge positions count the residues as written; N and C are the ends. Ends that are not written are not given here.
Legend:
[1] = relative weight change by rats injected daily; type: in vivo, rat; settings: for relative weight change: same dose; for effectiveness in weight control: FIGS. 5 and 6
From the text: FIG. 5 is a graph illustrating relative weight change by rats injected daily with the same dose of either a placebo, UGP269 (SEQ ID NO: 12) or UGP 271 (SEQ ID NO: 13), at 7 and 14 days after commencement of the injection regimen. […] UGP 271 contained nearly the same sequence of amino acids as UGP269 except for the replacement of three amino acids at positions 26, 27 and 29.
FIG. 6 is a graph illustrating relative weight change by rats injected daily with the same dose of either a placebo, salmon calcitonin, UGP 271 (SEQ ID NO: 13) or UGP 281 (SEQ ID NO: 14) at 7 and 14 days after commencement of the injection regimen. FIG. 1 is a graph illustrating data from a bioassay comparing cAMP response for a peptide of the invention, SEQ ID NO:3, versus recombinant salmon calcitonin. […] UGP281 and UGP271 had identical amino acid sequences except that UGP281 was acylated at the N-terminus with acetate.

[2] = placebo controlled crossover study with Beagle dogs, oral enteric-coated capsules (food intake, weight); type: in vivo, Beagle dog; settings: for effect on food intake / change in weight during the dosing period: oral capsules; for effect on food intake: equivalent doses, week of dosing, FIG. 2; for change in weight during the dosing period: same dose, FIG. 3
From the text: FIG. 2 is a graph illustrating the effect on food consumption provided by SEQ ID NO: 3 versus a placebo and two known appetite suppressants in a Beagle dog study. Average daily change in food consumption is shown following administration of oral capsules containing various doses of sCT, PYY or SEQ ID NO: 3 given to beagle dogs for four to seven days.
FIG. 3 is a graph illustrating the effect on weight provided by SEQ ID NO: 3 versus a placebo and two known appetite suppressants in a Beagle dog study. Average daily change in weight is shown following administration of oral capsules containing various doses of sCT, PYY, or SEQ ID NO: 3 given to beagle dogs for four to seven days.
The effect of peptide SEQ ID NO: 3 on food intake was investigated in a placebo controlled crossover study with Beagle dogs. Peptide SEQ ID NO: 3, as well as salmon calcitonin (sCT) and PYY(3-36)NH2 were formulated in enteric-coated capsules for oral delivery. The capsules also contained excipients that inhibit proteases and enhance the absorption of peptides. Placebo capsules contained the same excipients without the peptide. Food and water intake, as well as the weight of the dogs was monitored daily before, during, and after the dosing period. Dogs were allowed access to a known amount of food for an 8 hour period every day, and water was provided ad libitum. […] The food intake of dogs given a placebo remained unchanged.

[3] = target: T1, calcitonin receptor (Homo sapiens, UniProt P30988); experiment: cAMP response bioassay with T47D cells; type: cell-based; settings: FIG. 1, versus recombinant salmon calcitonin
T1 construct: endogenous in cells; host or cells: T47D cells
T1 sequence (P30988 25-474): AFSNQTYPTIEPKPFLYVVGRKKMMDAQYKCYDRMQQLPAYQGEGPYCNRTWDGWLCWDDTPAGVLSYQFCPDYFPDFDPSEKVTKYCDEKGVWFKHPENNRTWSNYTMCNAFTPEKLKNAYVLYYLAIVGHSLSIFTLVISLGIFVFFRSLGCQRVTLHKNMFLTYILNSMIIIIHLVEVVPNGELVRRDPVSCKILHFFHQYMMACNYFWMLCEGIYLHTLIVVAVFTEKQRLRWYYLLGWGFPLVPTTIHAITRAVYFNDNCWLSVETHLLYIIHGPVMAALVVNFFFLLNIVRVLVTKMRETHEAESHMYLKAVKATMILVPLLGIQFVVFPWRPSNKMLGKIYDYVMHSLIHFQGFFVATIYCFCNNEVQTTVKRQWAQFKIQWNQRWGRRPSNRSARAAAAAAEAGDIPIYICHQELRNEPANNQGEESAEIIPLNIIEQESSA
Experimental: FIG. 1 is a graph illustrating data from a bioassay comparing cAMP response for a peptide of the invention, SEQ ID NO: 3, versus recombinant salmon calcitonin. Two replicate bioassay experiments were performed measuring the cAMP response with T47D cells. Each experiment compared three samples of SEQ ID NO: 3 to a sample of rsCT.

[4] = target: T2, calcitonin receptors on T47D cells (Homo sapiens, UniProt P30988); experiment: binding to calcitonin receptors on T47D cells
T2 construct: endogenous in cells; host or cells: T47D cells
T2 sequence (P30988 25-474): T1 sequence (P30988 25-474)
From the text: FIG. 4 is a graph illustrating calcitonin-like properties of three peptides of the invention in comparison to salmon calcitonin in an assay that measures binding to calcitonin receptors on T47D cells. The three peptides of the invention are UGP269 (SEQ ID NO: 12), UGP 271 (SEQ ID NO: 13) and UGP281 (SEQ ID NO: 14).

[5] = rats injected intramuscularly daily, two weeks, FIG. 6
[6] = rats injected daily, 7 and 14 days, FIG. 5, versus placebo

| Compound | relative weight change [1, 5] | effect on food intake [2] | change in weight during the dosing period [2] | cAMP response (indicator of calcitonin receptor activation) compared with salmon calcitonin [3] | potency in reducing food consumption relative to sCT ([2]; FIGS. 1-3) | binding to calcitonin receptors compared with sCT ([4]; FIG. 4) | relative weight change [1, 6] | effectiveness in weight control ([1]; rats) | binding to calcitonin receptors compared with sCT ([4]; FIG. 4, listed as UGP 271) | enhancement of efficacy by the acetyl group on cysteine-1 ([1]; rats, FIG. 6, UGP281 versus UGP271) |
| --- | --- | --- | --- | --- | --- | --- | --- | --- | --- | --- |
| CC(C)C[C@H](NC(=O)[C@H](CCCCN)NC(=O)CNC(=O)[C@H](CC(C)C)NC(=O)[C@@H](NC(=O)[C@@H]1CSSC[C@H](N)C(=O)N[C@@H](CO)C(=O)N[C@@H](CC(N)=O)C(=O)N[C@@H](CC(C)C)C(=O)N[C@@H](CO)C(=O)N[C@@H]([C@@H](C)O)C(=O)N1)C(C)C)C(=O)N[C@@H](CO)C(=O)N[C@@H](CCC(N)=O)C(=O)N[C@@H](CCC(=O)O)C(=O)N[C@@H](CC(C)C)C(=O)N[C@@H](Cc1c[nH]cn1)C(=O)N[C@@H](CCCCN)C(=O)N[C@@H](CC(C)C)C(=O)N[C@@H](CCC(N)=O)C(=O)N[C@H](C(=O)N[C@@H](Cc1ccc(O)cc1)C(=O)N1CCC[C@H]1C(=O)N[C@@H](CCCNC(=N)N)C(=O)N[C@H](C(=O)N[C@@H](CC(N)=O)C(=O)N[C@H](C(=O)NCC(=O)N[C@@H](CO)C(=O)NCC(=O)N[C@H](C(=O)N1CCC[C@H]1C(N)=O)[C@@H](C)O)[C@@H](C)O)[C@@H](C)O)[C@@H](C)O [sCT, salmon calcitonin] | significant weight loss | significantly decreased food intake | small but significant reduction in weight | – | – | – | – | – | – | – |
| PYY(3-36)NH2 | – | lesser effect | 0.05 % per day | – | – | – | – | – | – | – |
| SEQ ID NO: 3: salmon calcitonin sequence except asparagine at position 30 and tyrosine at position 32, amidated at tyrosine-32 (CSNLSTCVLGKLSQELHKLQTYPRTNTGSNTY-NH2; ends and bridges not checked) | – | significantly decreased food intake | small but significant reduction in weight | less potent when binding to the calcitonin receptor than is natural salmon calcitonin | comparable to that of the bone anti-resorptive peptide sCT | – | – | – | – | – |
| UGP269: peptide of the invention, calcitonin analog (CSNLSTCVLGKLSQELHKLQTYPRTNTGSNTY-NH2; disulfide 1-7; N-terminus assumed; SMILES CC(C)C[C@H](NC(=O)[C@H](CCCCN)NC(=O)CNC(=O)[C@H](CC(C)C)NC(=O)[C@@H](NC(=O)[C@@H]1CSSC[C@H](N)C(=O)N[C@@H](CO)C(=O)N[C@@H](CC(N)=O)C(=O)N[C@@H](CC(C)C)C(=O)N[C@@H](CO)C(=O)N[C@@H]([C@@H](C)O)C(=O)N1)C(C)C)C(=O)N[C@@H](CO)C(=O)N[C@@H](CCC(N)=O)C(=O)N[C@@H](CCC(=O)O)C(=O)N[C@@H](CC(C)C)C(=O)N[C@@H](Cc1c[nH]cn1)C(=O)N[C@@H](CCCCN)C(=O)N[C@@H](CC(C)C)C(=O)N[C@@H](CCC(N)=O)C(=O)N[C@H](C(=O)N[C@@H](Cc1ccc(O)cc1)C(=O)N1CCC[C@H]1C(=O)N[C@@H](CCCNC(=N)N)C(=O)N[C@H](C(=O)N[C@@H](CC(N)=O)C(=O)N[C@H](C(=O)NCC(=O)N[C@@H](CO)C(=O)N[C@@H](CC(N)=O)C(=O)N[C@H](C(=O)N[C@@H](Cc1ccc(O)cc1)C(N)=O)[C@@H](C)O)[C@@H](C)O)[C@@H](C)O)[C@@H](C)O) | – | – | – | – | – | less binding to sCT receptors than sCT; also recorded: less binding affinity for the calcitonin receptor than does salmon calcitonin | less weight gain over two weeks than those injected with placebo | good effectiveness in weight control | – | – |
| UGP271: nearly the same sequence as UGP269 except for the replacement of three amino acids at positions 26, 27 and 29 (CSNLSTCVLGKLSQELHKLQTYPRTDVGANTY-NH2; disulfide 1-7; N-terminus assumed; SMILES CC(C)C[C@H](NC(=O)[C@H](CCCCN)NC(=O)CNC(=O)[C@H](CC(C)C)NC(=O)[C@@H](NC(=O)[C@@H]1CSSC[C@H](N)C(=O)N[C@@H](CO)C(=O)N[C@@H](CC(N)=O)C(=O)N[C@@H](CC(C)C)C(=O)N[C@@H](CO)C(=O)N[C@@H]([C@@H](C)O)C(=O)N1)C(C)C)C(=O)N[C@@H](CO)C(=O)N[C@@H](CCC(N)=O)C(=O)N[C@@H](CCC(=O)O)C(=O)N[C@@H](CC(C)C)C(=O)N[C@@H](Cc1c[nH]cn1)C(=O)N[C@@H](CCCCN)C(=O)N[C@@H](CC(C)C)C(=O)N[C@@H](CCC(N)=O)C(=O)N[C@H](C(=O)N[C@@H](Cc1ccc(O)cc1)C(=O)N1CCC[C@H]1C(=O)N[C@@H](CCCNC(=N)N)C(=O)N[C@H](C(=O)N[C@@H](CC(=O)O)C(=O)N[C@H](C(=O)NCC(=O)N[C@@H](C)C(=O)N[C@@H](CC(N)=O)C(=O)N[C@H](C(=O)N[C@@H](Cc1ccc(O)cc1)C(N)=O)[C@@H](C)O)C(C)C)[C@@H](C)O)[C@@H](C)O) | modest weight loss | – | – | – | – | less binding to sCT receptors than sCT | no weight gain | good effectiveness in weight control | less binding affinity for the calcitonin receptor than does salmon calcitonin | – |
| UGP281: amino acid sequence identical to UGP271 except acylated at the N-terminus with acetate (Ac-CSNLSTCVLGKLSQELHKLQTYPRTDVGANTY-NH2; disulfide 1-7; SMILES CC(=O)N[C@H]1CSSC[C@@H](C(=O)N[C@H](C(=O)N[C@@H](CC(C)C)C(=O)NCC(=O)N[C@@H](CCCCN)C(=O)N[C@@H](CC(C)C)C(=O)N[C@@H](CO)C(=O)N[C@@H](CCC(N)=O)C(=O)N[C@@H](CCC(=O)O)C(=O)N[C@@H](CC(C)C)C(=O)N[C@@H](Cc2c[nH]cn2)C(=O)N[C@@H](CCCCN)C(=O)N[C@@H](CC(C)C)C(=O)N[C@@H](CCC(N)=O)C(=O)N[C@H](C(=O)N[C@@H](Cc2ccc(O)cc2)C(=O)N2CCC[C@H]2C(=O)N[C@@H](CCCNC(=N)N)C(=O)N[C@H](C(=O)N[C@@H](CC(=O)O)C(=O)N[C@H](C(=O)NCC(=O)N[C@@H](C)C(=O)N[C@@H](CC(N)=O)C(=O)N[C@H](C(=O)N[C@@H](Cc2ccc(O)cc2)C(N)=O)[C@@H](C)O)C(C)C)[C@@H](C)O)[C@@H](C)O)C(C)C)NC(=O)[C@H]([C@@H](C)O)NC(=O)[C@H](CO)NC(=O)[C@H](CC(C)C)NC(=O)[C@H](CC(N)=O)NC(=O)[C@H](CO)NC1=O) | significant weight loss | – | – | – | – | less binding to sCT receptors than sCT; also recorded: less binding affinity for the calcitonin receptor than does salmon calcitonin | – | good effectiveness in weight control | – | substantial enhancement of efficacy |

— patent US9833494B2, “Methods of treating medical conditions using peptides” (KeyBioscience AG, priority 2009, dated 2017)
